Measured values from article PMC5729109 (Journal of the American Chemical Society, 2017).
Where “and” joins values, the source holds several entries; their conditions need not be identical. Equal values may be shown once. Marks after values point to notes of the source that are not given here. *1 amine or outer side, *2 acyl side, *3 side chain or, on linkers, in order; H or OH if unused. Where a SMILES comes first, the peptide text is derived from it. Bridges are numbered along the chain shown (N, C = ends). [ ]: non-standard residue; d: D form. Adda = CO[C@@H](Cc1ccccc1)[C@@H](C)/C=C(C)/C=C/[C@H](N[*:1])[C@H](C)C(=O)[*:2]; dAsp(3S-Me) = C[C@H](C(=O)[*:3])[C@@H](N[*:1])C(=O)[*:2]; d(γGlu) = O=C(O)[C@@H](CCC(=O)[*:2])N[*:1]; NMeDha = C=C(NC)C(=O)O

Columns and labels:
PP1, PP2A, PP4 and PP5 = conditions: cited from earlier work
PP1 [1] = molecular target: T1, PP1 (Homo sapiens, UniProt P62136); assay: [32P]-phosphohistone dephosphorylation assay, PP1; assay type: biochemical
T1 sequence (P62136 whole entry): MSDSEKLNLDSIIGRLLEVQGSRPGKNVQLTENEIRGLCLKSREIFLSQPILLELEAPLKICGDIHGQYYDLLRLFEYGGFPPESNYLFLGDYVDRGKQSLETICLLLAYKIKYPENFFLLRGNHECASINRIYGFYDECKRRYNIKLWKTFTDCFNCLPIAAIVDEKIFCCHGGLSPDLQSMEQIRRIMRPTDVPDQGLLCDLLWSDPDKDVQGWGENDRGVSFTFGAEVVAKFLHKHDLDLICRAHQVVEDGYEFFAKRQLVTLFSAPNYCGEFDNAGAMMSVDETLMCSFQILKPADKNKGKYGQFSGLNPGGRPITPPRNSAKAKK

PP2A [2] = molecular target: T2, PP2A (Homo sapiens, UniProt P67775); assay: [32P]-phosphohistone dephosphorylation assay, PP2A; assay type: biochemical
T2 sequence (P67775 whole entry): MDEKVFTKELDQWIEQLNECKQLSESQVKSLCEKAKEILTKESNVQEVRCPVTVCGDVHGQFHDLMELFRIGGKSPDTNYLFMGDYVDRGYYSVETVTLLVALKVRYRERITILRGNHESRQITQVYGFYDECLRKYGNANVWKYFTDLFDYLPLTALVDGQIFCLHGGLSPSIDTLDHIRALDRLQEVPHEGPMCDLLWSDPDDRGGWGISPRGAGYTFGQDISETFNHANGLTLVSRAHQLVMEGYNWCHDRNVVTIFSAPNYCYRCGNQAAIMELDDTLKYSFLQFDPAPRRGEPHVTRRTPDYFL

PP5 = PP5 (Homo sapiens, UniProt P53041); assay: [32P]-phosphohistone dephosphorylation assay, PP5; assay type: biochemical
PP5, sequence (P53041 whole entry): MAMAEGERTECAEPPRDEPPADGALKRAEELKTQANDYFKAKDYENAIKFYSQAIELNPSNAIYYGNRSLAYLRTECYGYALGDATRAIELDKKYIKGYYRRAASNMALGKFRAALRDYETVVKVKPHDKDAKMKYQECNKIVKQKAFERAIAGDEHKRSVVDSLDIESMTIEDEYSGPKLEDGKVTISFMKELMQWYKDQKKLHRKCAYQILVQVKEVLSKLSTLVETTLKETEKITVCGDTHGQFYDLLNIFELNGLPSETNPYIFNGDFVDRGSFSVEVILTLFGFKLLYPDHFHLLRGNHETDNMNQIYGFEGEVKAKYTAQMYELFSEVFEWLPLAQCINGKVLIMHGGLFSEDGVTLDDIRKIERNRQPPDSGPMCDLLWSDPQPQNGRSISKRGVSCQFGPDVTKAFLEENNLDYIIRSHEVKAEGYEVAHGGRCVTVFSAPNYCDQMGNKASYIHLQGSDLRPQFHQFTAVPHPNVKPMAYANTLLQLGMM

PP4 = PP4 (Homo sapiens, UniProt P60510); assay: DiFMUP dephosphorylation assay, PP4; assay type: biochemical
PP4, sequence (P60510 whole entry): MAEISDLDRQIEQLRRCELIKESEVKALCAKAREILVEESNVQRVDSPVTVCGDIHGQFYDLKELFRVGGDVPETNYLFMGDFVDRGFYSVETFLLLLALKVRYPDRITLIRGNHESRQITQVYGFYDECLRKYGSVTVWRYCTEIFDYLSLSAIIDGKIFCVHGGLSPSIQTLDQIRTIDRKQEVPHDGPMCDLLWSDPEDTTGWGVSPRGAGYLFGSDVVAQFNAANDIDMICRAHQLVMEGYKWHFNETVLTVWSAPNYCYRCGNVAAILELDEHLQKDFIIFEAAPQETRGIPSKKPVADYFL

PP6 = PP6 (Homo sapiens, UniProt O00743); assay: DiFMUP dephosphorylation assay, PP6; assay type: biochemical
PP6, sequence (O00743 whole entry): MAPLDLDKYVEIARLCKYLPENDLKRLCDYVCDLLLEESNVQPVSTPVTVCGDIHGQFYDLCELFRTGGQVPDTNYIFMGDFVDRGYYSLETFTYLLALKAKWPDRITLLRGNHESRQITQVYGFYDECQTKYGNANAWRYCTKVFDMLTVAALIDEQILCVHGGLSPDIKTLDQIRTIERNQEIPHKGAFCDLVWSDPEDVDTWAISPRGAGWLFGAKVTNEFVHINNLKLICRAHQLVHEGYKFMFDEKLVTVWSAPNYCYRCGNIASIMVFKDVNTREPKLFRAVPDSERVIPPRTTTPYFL

PP2B = PP2B (Homo sapiens, UniProt Q08209); assay: DiFMUP dephosphorylation assay, PP2B; assay type: biochemical
PP2B, sequence (P63098 2-170, other chains not shown): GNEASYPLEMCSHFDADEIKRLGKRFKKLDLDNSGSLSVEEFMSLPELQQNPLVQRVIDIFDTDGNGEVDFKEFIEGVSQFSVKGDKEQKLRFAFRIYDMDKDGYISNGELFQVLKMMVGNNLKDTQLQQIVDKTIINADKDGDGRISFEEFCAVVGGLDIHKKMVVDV

SHP2 [3] = assay: Tyrosine phosphatase inhibition, SHP2; assay type: biochemical; conditions: IC50 SHP2 / IC50 PP1
SHP1 [4] = assay: Tyrosine phosphatase inhibition, SHP1; assay type: biochemical; conditions: IC50 SHP1 / IC50 PP1
Lyp [5] = assay: Tyrosine phosphatase inhibition, Lyp; assay type: biochemical; conditions: IC50 Lyp / IC50 PP1
PTP1B [6] = assay: Tyrosine phosphatase inhibition, PTP1B; assay type: biochemical; conditions: IC50 PTP1B / IC50 PP1
PTPα [7] = assay: Tyrosine phosphatase inhibition, PTPα; assay type: biochemical; conditions: IC50 PTPα / IC50 PP1
HePTP [8] = assay: Tyrosine phosphatase inhibition, HePTP; assay type: biochemical; conditions: IC50 HePTP / IC50 PP1
CD45 [9] = assay: Tyrosine phosphatase inhibition, CD45; assay type: biochemical; conditions: IC50 CD45 / IC50 PP1
VHR [10] = assay: Tyrosine phosphatase inhibition, VHR; assay type: biochemical; conditions: IC50 VHR / IC50 PP1
CDC14A [11] = assay: Tyrosine phosphatase inhibition, CDC14A; assay type: biochemical; conditions: IC50 CDC14A / IC50 PP1
PPP family members = assay: In vitro dephosphorylation assays across PPP family members; assay type: biochemical
[12] = molecular target: PP1 Cys127Ser mutant (C127SPP1) (Homo sapiens, UniProt P62136, C127S); assay type: biochemical
PP1 Cys127Ser mutant (C127SPP1), sequence (P62136 whole entry C127S): as the sequence (P62136 whole entry) above, with C127S counted along it

PP1 [13] = molecular target: T1, PP1; assay: Lineweaver-Burk kinetic analysis, PP1; assay type: biochemical; conditions: WT PP1; indicative of irreversible enzyme inhibition; Figure S6
PP1 (Cys127) = PP1 (Cys127) (Homo sapiens, UniProt P62136); assay: ESI mass spectrometry of covalent PP1:TTN adduct, time-course; assay type: binding; conditions: ESI-MS time-course analysis
PP1 (Cys127), sequence (P62136 7-300): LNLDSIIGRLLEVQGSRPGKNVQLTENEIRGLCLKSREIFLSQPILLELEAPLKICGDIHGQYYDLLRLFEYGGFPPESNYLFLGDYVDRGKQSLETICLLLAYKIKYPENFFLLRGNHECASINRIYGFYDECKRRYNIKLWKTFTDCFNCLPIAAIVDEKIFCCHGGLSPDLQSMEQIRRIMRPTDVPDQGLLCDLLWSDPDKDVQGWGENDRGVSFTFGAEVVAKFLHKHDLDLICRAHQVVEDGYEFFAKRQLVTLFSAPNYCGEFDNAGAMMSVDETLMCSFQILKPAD

SHP2 [14] = conditions: tyrosine phosphatase; cited from earlier work
SHP1 [15] = conditions: tyrosine phosphatase; cited from earlier work
Lyp [16] = conditions: tyrosine phosphatase; cited from earlier work
PTP1B [17] = conditions: tyrosine phosphatase; cited from earlier work
PTPα [18] = conditions: tyrosine phosphatase; cited from earlier work
HePTP [19] = conditions: tyrosine phosphatase; cited from earlier work
CD45 [20] = conditions: tyrosine phosphatase; cited from earlier work
VHR [21] = conditions: tyrosine phosphatase; cited from earlier work
CDC14A [22] = conditions: tyrosine phosphatase; cited from earlier work
PP2A [23] = molecular target: T2, PP2A; conditions: cited from earlier work

CO[C@H]([C@H](O)CC(=O)[C@@H](C)[C@@H](O)CC[C@@H](C)[C@@H]1O[C@]2(CC[C@@H](C)[C@H](CC[C@H](C)C(C)=O)O2)CC[C@@H]1C)[C@H](OC(=O)C[C@@H](O)C1=C(C)C(=O)OC1=O)C(C)C [TTM, tautomycin]
Inhibition of PP1, PP2A, PP4 and PP5 compared (PP1, PP2A, PP4 and PP5): to a similar extent

C=C/C(=C/C(=O)C[C@H](C)C[C@@H](C)CC[C@H](O)[C@H](C)C(=O)C[C@@H](O)[C@H](C)[C@@H](C)OC(=O)C[C@@H](O)C1=C(C)C(=O)OC1=O)CC [TTN, Tautomycetin]
IC50 (PP1 [1]): 38 ± 9 pM | IC50 (PP2A [2]): 0.0053 ± 0.00026 µM | Fold change (relative to PP1) (PP2A [2]; IC50 PP2A / IC50 PP1, [32P]-phosphohistone): 139 ^b fold | IC50 (PP5): 0.0119 ± 5e-05 µM | Fold change (relative to PP1) (PP5; IC50 PP5 / IC50 PP1, [32P]-phosphohistone): 313 ^b fold | IC50 (PP4): 0.0444 ± 0.0042 µM | Fold change (relative to PP1) (PP4; IC50 PP4 / IC50 PP1): 1168 fold | IC50 (PP6): 0.101 ± 0.007 µM | Fold change (relative to PP1) (PP6; IC50 PP6 / IC50 PP1): 2657 fold | IC50 (PP2B): 17.5 ± 3.2 µM | Fold change (relative to PP1) (PP2B; IC50 PP2B / IC50 PP1): >10^5 fold | Fold change (relative to PP1) (SHP2 [3]): >10^4 fold | Fold change (relative to PP1) (SHP1 [4]): >10^5 fold | Fold change (relative to PP1) (Lyp [5]): >10^5 fold | Fold change (relative to PP1) (PTP1B [6]): >10^5 fold | Fold change (relative to PP1) (PTPα [7]): >10^5 fold | Fold change (relative to PP1) (HePTP [8]): >10^5 fold | Fold change (relative to PP1) (CD45 [9]): >10^5 fold | Fold change (relative to PP1) (VHR [10]): >10^5 fold | Fold change (relative to PP1) (CDC14A [11]): >10^5 fold | Selectivity (potency) for PP1 versus any other PPP tested (PPP family members): > 100 fold and 100 fold | Fold higher IC50 than for PP1, the other PPPs tested (PPP family members; PPPs other than PP2A and PP5): > 10^3 fold | Change of IC50 for C127SPP1 compared to WT PP1 [12]: ~10 fold | Mode of inhibition (Lineweaver-Burk kinetic analysis) ([12]; C127SPP1, Figure S6): competitive inhibition | Mode of inhibition (Lineweaver-Burk kinetic analysis) (PP1 [13]): noncompetitive inhibition | Time of covalent adduct formation with PP1 (PP1 (Cys127)): less than 10 min | IC50 (SHP2 [14]): 2.9 ± 0.2 µM | IC50 (SHP1 [15]): 14.6 ± 0.1 µM | IC50 (Lyp [16]): 20 ± 2 µM | IC50 (PTP1B [17]): 41.2 ± 4.4 µM | IC50 (PTPα [18]): > 50 µM | IC50 (HePTP [19]): > 50 µM | IC50 (CD45 [20]): > 50 µM | IC50 (VHR [21]): > 50 µM | IC50 (CDC14A [22]): > 50 µM

C[C@@](O)(/C=C/[C@H]1CC=CC(=O)O1)[C@@H](C[C@@H](O)\C=C/C=C\C=C\CO)OP(=O)(O)O [fostriecin]
Inhibition of PP2A compared with PP4 (PP2A [23]): nearly the same extent

C=C1C(=O)N[C@H](C)C(=O)N[C@@H](CC(C)C)C(=O)N[C@@H](C(=O)O)[C@H](C)C(=O)N[C@@H](CCCNC(=N)N)C(=O)N[C@@H](/C=C/C(C)=C/[C@H](C)[C@H](Cc2ccccc2)OC)[C@H](C)C(=O)N[C@@H](C(=O)O)CCC(=O)N1C [Microcystin-LR] (R[Adda][d(γGlu)][NMeDha][dA]L[dAsp(3S-Me)]-OH; lactam N-7)
Change of IC50 for C127SPP1 compared to WT PP1 [12]: no difference
